Measurements published in US20150173371A1 (Dow AgroSciences LLC, priority 2013, published 2015).
Several values for one entry are separate records, joined by “and”; a condition that tells them apart may be missing. Equal values may be shown once. Read-outs that look alike come from different tables or passages of the source.

Columns and labels:
[1] = tested on: Commelina benghalensis (hairy wandering Jew, COMBE); test: Field trial, % visual weed control; type: in vivo; conditions: 800 g ae/ha alone
Text: (§1) Boom sizes varied from 2-3 m in width.

[2] = tested on: Tridax procumbens L (tridax daisy, TRQPR); test: Field trial, % visual weed control; type: in vivo; conditions: 16DAA, 800 g ae/ha alone
Text: as §1

[3] = tested on: Euphorbia hirta (garden spurge, EPHHI); test: Field trial, % visual weed control; type: in vivo
Text: as §1

[4] = tested on: Ipomoea grandifolia (Corda-de-viola, IAQGR); test: Field trial, % visual weed control; type: in vivo; conditions: 17DAA, 800 g ae/ha alone
Text: as §1

[5] = tested on: Ipomoea species (morningglory, IPOSS); test: Field trial, % visual weed control; type: in vivo; conditions: 8DAA, 840 g ae/ha alone
Text: as §1

[6] = tested on: Spermacoce latifolia (broadleaf buttonweed, BOILF); test: Field trial, % visual weed control; type: in vivo
Text: as §1

[7] = tested on: Glycine max (soybean, glyphosate tolerant, GLXMA); test: Field trial, % visual weed control; type: in vivo
Text: as §1

[8] = tested on: Amaranthus palmeri (Palmer pigweed, AMAPA); test: Field trial, % visual weed control; type: in vivo
Text: as §1

[9] = tested on: Sesbania exaltata (hemp sesbania, SEBEX); test: Field trial, % visual weed control; type: in vivo; conditions: 8DAA, 840 g ae/ha alone
Text: as §1

[10] = tested on: Brachiaria decumbens (Surinam grass, BRADC); test: Field trial, % visual weed control; type: in vivo; conditions: 12DAA, 720 g ae/ha alone
Text: as §1

[11] = tested on: Jacquemontia tamnifolia (smallflower morningglory, IAQTA); test: Field trial, % visual weed control; type: in vivo; conditions: 7DAA, 1120 g ae/ha alone
Text: as §1

[12] = tested on: Euphorbia heterophylla (wild poinsettia, EPHHL); test: Field trial, % visual weed control; type: in vivo; conditions: 28DAA, 615 g ae/ha alone
Text: as §1

[13] = tested on: Raphanus raphanistrim (wild radish, RAPRA); test: Field trial, % visual weed control; type: in vivo; conditions: 6DAA, 800 g ae/ha alone
Text: as §1

[14] = tested on: Abutilon theophrasti (velvetleaf, ABUTH); test: Greenhouse trial, % visual weed control; type: in vivo; conditions: 14DAA
Experimental: (§2) Greenhouse trials were conducted under controlled environment greenhouse conditions, with plants grown in pots with Metromix soil and bottom watered. Treatments were applied with 3 replicates per treatment, using a track sprayer with 2 flat fan nozzles at 40 pounds per square inch (PSI). Water was used as the diluent at 140 liters per hectare (L/ha), with weeds being 2-4 leaf stage and approximately 3 inches in height at treatment.

[15] = tested on: Ambrosia artemisiifolia (common ragweed, AMBEL); test: Greenhouse trial, % visual weed control; type: in vivo; conditions: 14DAA, 105 g ae/ha alone
Experimental: as §2

[16] = tested on: Chenopodium album (common lambsquarter, CHEAL); test: Greenhouse trial, % visual weed control; type: in vivo; conditions: 14DAA
Experimental: as §2

[17] = tested on: Elymus repens (quackgrass, AGRRE); test: Greenhouse trial, % visual weed control; type: in vivo; conditions: 14DAA, 210 g ae/ha alone
Experimental: as §2

[18] = tested on: Conyza canadensis (horseweed, ERICA); conditions: field trial
Experimental: (§3) Field trials were conducted under normal field conditions in multiple states in the United States, including but not limited to Alabama, Mississipi, South Carolina and Tennessee; and in Brazil, including but not limited to the states of Goias, Mato Grosso, Parana, Rio Grande do Sul, and Sao Paulo. Trials were established as RCB (randomized complete block) design, with 3-4 replicates per treatment, and plot sizes varying from 2-3 meters (m) wide by 4-8 m long. Treatments were applied with small plot backpack sprayers, using pressurized carbon dioxide (CO2) as propellant. Pressure varied from 22-40 PSI, with spray tips typically of a Flat Fan type applying water diluent at 150 L/ha. Boom sizes varied from 2-3 m in width. Treatments were applied to soybean, cotton or fallow crop land. Weed sizes varied, but all treatments were applied as post-emergence treatments to weeds from 2 leaf to 2 tiller growth stages varying from 2-15 inches (in) in height. No additional adjuvant was mixed with the treatments applied in the field
(§4) The treated plots and control plots were rated blind at various intervals after application.
(§5) Colby's equation was used to determine the herbicidal effects expected from the mixtures (Colby, S. R. Calculation of the synergistic and antagonistic response of herbicide combinations. Weeds 1967 15, 20-22). A t-test (alpha=0.05) between Colby predictions and observed combinations was used to test for significant differences indicating synergy or antagonism.
(§6) The following equation was used to calculate the expected activity of mixtures containing two active ingredients, A and B:
(§7) Expected=A+B−(A×B/100) • A=observed efficacy of active ingredient A at the same concentration as used in the mixture; • B=observed efficacy of active ingredient B at the same concentration as used in the mixture.

[19] = tested on: Conyza bonariensis (hairy fleabane, ERIBO); conditions: field trial
Experimental: as §3, §4, §5, §6, §7

Question: How did the “Mean % Weed Control” value ([1]; 12DAA) turn out when `CNC.O=C(O)CNCP(=O)(O)O` [Glyphosate-DMA, dimethylamine salt of N-(phosphonomethyl)glycine] was run?
Answer: 50.0%

Question: What about the “Mean % Weed Control” value ([1]; 15DAA) of the same compound?
Answer: 62.5% and 43.8%

Question: What about the “Mean % Weed Control” value ([1]; 18DAA) of the same compound?
Answer: 51.3%

Question: And the “Mean % Weed Control” value ([1]; 27DAA)?
Answer: 70.0%

Question: And the “Mean % Weed Control” value ([1]; 28DAA)?
Answer: 63.8%

Question: And the “Mean % Weed Control” value ([1]; 35DAA)?
Answer: 67.5%

Question: And the “Mean % Weed Control” value [2]?
Answer: 47.5%

Question: And the “Mean % Weed Control” value ([3]; 7DAA, 800 g ae/ha alone)?
Answer: 43.8%

Question: What about the “Mean % Weed Control” value ([3]; 18DAA, 800 g ae/ha alone) of the same compound?
Answer: 50.0%

Question: And the “Mean % Weed Control” value ([3]; 21DAA, 800 g ae/ha alone)?
Answer: 41.3%

Question: And the “Mean % Weed Control” value ([3]; 24DAA, 480 g ae/ha alone)?
Answer: 50.0%

Question: And the “Mean % Weed Control” value [4]?
Answer: 87.0%

Question: And the “Mean % Weed Control” value [5]?
Answer: 48.8%

Question: What about the “Mean % Weed Control” value ([6]; 18DAA, 800 g ae/ha alone) of the same compound?
Answer: 47.5%

Question: What about the “Mean % Weed Control” value ([6]; 21DAA, 800 g ae/ha alone) of the same compound?
Answer: 79.5%

Question: And the “Mean % Weed Control” value ([6]; 24DAA, 480 g ae/ha alone)?
Answer: 51.7%

Question: And the “Mean % Weed Control” value ([6]; 27DAA, 800 g ae/ha alone)?
Answer: 72.5%

Question: What about the “Mean % Weed Control” value ([6]; 28DAA, 800 g ae/ha alone) of the same compound?
Answer: 77.5%

Question: And the “Mean % Weed Control” value ([7]; 7DAA, 960 g ae/ha alone)?
Answer: 0.0%

Question: What about the “Mean % Weed Control” value ([7]; 16DAA, 480 g ae/ha alone) of the same compound?
Answer: 0.0%

Question: And the “Mean % Weed Control” value ([7]; 28DAA, 480 g ae/ha alone)?
Answer: 0.0%

Question: What about the “Mean % Weed Control” value ([7]; 28DAA, 960 g ae/ha alone) of the same compound?
Answer: 0.0%

Question: What about the “Mean % Weed Control” value ([7]; 30DAA, 480 g ae/ha alone) of the same compound?
Answer: 0.0%

Question: What about the “Mean % Weed Control” value ([8]; 7DAA, 840 g ae/ha alone) of the same compound?
Answer: 52.5%

Question: What about the “Mean % Weed Control” value ([8]; 13DAA, 1120 g ae/ha alone) of the same compound?
Answer: 60.0%

Question: What about the “Mean % Weed Control” value ([8]; 21DAA, 1120 g ae/ha alone) of the same compound?
Answer: 61.3%

Question: And the “Mean % Weed Control” value [9]?
Answer: 53.8%

Question: What about the “Mean % Weed Control” value [10] of the same compound?
Answer: 73.8%

Question: And the “Mean % Weed Control” value [11]?
Answer: 86.3%

Question: What about the “Mean % Weed Control” value [12] of the same compound?
Answer: 68.3%

Question: And the “Mean % Weed Control” value [13]?
Answer: 85.0%

Question: And the “Mean % Weed Control” value ([14]; 105 g ae/ha alone)?
Answer: 0.0%

Question: What about the “Mean % Weed Control” value ([14]; 210 g ae/ha alone) of the same compound?
Answer: 3.3%

Question: And the “Mean % Weed Control” value ([14]; 420 g ae/ha alone)?
Answer: 63.3%

Question: And the “Mean % Weed Control” value ([14]; 840 g ae/ha alone)?
Answer: 85.0%

Question: And the “Mean % Weed Control” value [15]?
Answer: 26.7%

Question: And the “Mean % Weed Control” value ([16]; 105 g ae/ha alone)?
Answer: 0.0%

Question: What about the “Mean % Weed Control” value ([16]; 210 g ae/ha alone) of the same compound?
Answer: 21.7%

Question: What about the “Mean % Weed Control” value ([16]; 420 g ae/ha alone) of the same compound?
Answer: 70.0%

Question: And the “Mean % Weed Control” value [17]?
Answer: 12.5%

Question: And the “Mean % Weed Control” value ([18]; 10DAA, 960 g ae/ha alone)?
Answer: 10%

Question: What about the “Mean % Weed Control” value ([18]; 14DAA, 840 g ae/ha alone) of the same compound?
Answer: 67.5%

Question: What about the “Mean % Weed Control” value ([18]; 15DAA, 960 g ae/ha alone) of the same compound?
Answer: 15%

Question: And the “Mean % Weed Control” value ([18]; 21DAA, 840 g ae/ha alone)?
Answer: 68.8%

Question: What about the “Mean % Weed Control” value ([18]; 28DAA, 840 g ae/ha alone) of the same compound?
Answer: 78.3%

Question: And the “Mean % Weed Control” value ([18]; 31DAA, 960 g ae/ha alone)?
Answer: 51.7%

Question: What about the “Mean % Weed Control” value ([19]; 6DAA, 360 g ae/ha alone) of the same compound?
Answer: 6.3%

Question: What about the “Mean % Weed Control” value ([19]; 6DAA, 720 g ae/ha alone) of the same compound?
Answer: 5.0%

Question: What about the “Mean % Weed Control” value ([19]; 6DAA, 1080 g ae/ha alone) of the same compound?
Answer: 12.5%

Question: And the “Mean % Weed Control” value ([19]; 7DAA, 800 g ae/ha alone)?
Answer: 13.8% and 11.3%

Question: And the “Mean % Weed Control” value ([19]; 10DAA, 800 g ae/ha alone)?
Answer: 41.3%

Question: And the “Mean % Weed Control” value ([19]; 20DAA, 800 g ae/ha alone)?
Answer: 35.0%

Question: What about the “Mean % Weed Control” value ([19]; 21DAA, 800 g ae/ha alone) of the same compound?
Answer: 36.3%

Question: What about the “Mean % Weed Control” value ([19]; 28DAA, 800 g ae/ha alone) of the same compound?
Answer: 53.8% and 32.5% and 33.8%

Question: What about the “Mean % Weed Control” value ([19]; 31DAA, 800 g ae/ha alone) of the same compound?
Answer: 38.8%

Question: What about the “Mean % Weed Control” value ([19]; 36DAA, 800 g ae/ha alone) of the same compound?
Answer: 75.0% and 55.0%
